Assay results taken from patent US10059669B2, “2-amino-3,5-difluoro-3,6-dimethyl-6-phenyl-3,4,5,6-tetrahydropyridines as BACE1 inhibitors for treating alzheimer's disease” (H. Lundbeck A/S, priority 2014, dated 2018).

How the values were obtained:
[1] = molecular target: T1, BACE1 (Homo sapiens (Human), UniProt P56817); experiment: BACE1 efficacy assay (FRET-based, commercial BACE1 kit); assay type: biochemical; conditions: 10 μM test compound
Experimental: The efficacy assay was performed as a FRET-based assay using a commercially available BACE1 kit (Life Technologies, P2985). 2 μl test compound at 10 μM (final concentration) and 15 μl BACE1 enzyme from the kit (final concentration 3 nM) were preincubated for 15 minutes at room temperature before addition of 15 μl of substrate from the kit (250 nM final concentration) and incubated for additional 90 minutes at room temperature. The assay plate was subsequently read in a Pherastar (Ex540/Em590). The enzyme activity observed in presence of test compound were normalized to the enzyme activity observed in presence of buffer and 10 μM (final concentration) of the high affinity BACE1 reference inhibitor (S)-6-[3-Chloro-5-(5-prop-1-ynyl-pyridin-3-yl)-thiophen-2-yl]-2-imino-3,6-dimethyl-tetra-hydropyrimidin-4-one, respectively. The efficacy of the test compounds was evaluated at 10 μM (final concentration) and defined as the percent inhibition of the enzyme activity using the equation % inhibition=100%−normalized enzyme activity in percent.

[2] = tested on: P-gp (MDR1); experiment: MDCK-MDR1 assay (permeability, efflux ratio); assay type: in vitro ADME; conditions: dog, Papp BA/Papp AB, 60-minute incubation, Pgp substrate when ≥2
Experimental: The permeability of the test compounds was assessed in MDCK-MDR1 cells that were cultured to confluency (4-6 days) in a 96 transwell plate. Test compounds were diluted with the transport buffer (HBSS+1% BSA) to a concentration of 0.5 μM and applied to the apical or basolateral side of the cell monolayer. Permeation of the test compounds from A to B direction or B to A direction was determined in triplicate over a 60-minute incubation time at 37° C. and 5% CO2 with a relative humidity of 95%. Test compounds were quantified by LC-MS/MS analysis based on the peaks area ratios of analyte/IS in both the receiver and donor wells of the transwell plate.
The apparent permeability coefficient Papp (cm/s) was calculated using the equation: Papp=(dCr/dt)×Vr/(A×C0)
Where dCr/dt is the cumulative concentration of compound in the receiver chamber as a function of time (M/s); Vr is the solution volume in the receiver chamber (0.05 mL on the apical side; 0.25 mL on the basolateral side); A is the surface area for the transport, i.e. 0.0804 cm^2 for the area of the monolayer; C0 is the initial concentration in the donor chamber (VIM).
Compounds are classified Pgp substrates when efflux ratio (Papp BA/Papp AB) is ≥2.

[3] = molecular target: T1, BACE1; experiment: BACE1 binding assay (SPA-based radioligand binding); conditions: pH 4.5, 10 nM radioligand, Ki calculated from IC50
Experimental: The binding assay was performed as SPA-based assay using a biotinylated form of human BACE1 recombinantly expressed and subsequently purified from Freestyle HEK293 cells. The binding assay was run in a 50 mM sodium acetate buffer, pH 4.5 containing 50 mM NaCl and 0.03% Tween-20 in white clear bottom 384 plates (Corning #3653). 10 nM (final concentration) radioligand ([^3H]—N-((1S,2R)-1-benzyl-3-cyclopropylamino-2-hydroxy-propyl)-5-(methanesulfonyl-methyl-amino)-N—((R)-1-phenyl-ethyl)-isophthalamide) (TRQ11569 purchased from GE Healthcare) was mixed with test compound at a given concentration, 6 nM (final concentration) human BACE1 and 25 μg Streptavidin coated PVT core SPA beads (RPNQ0007, GE Healthcare Life Sciences) in a total volume of 40 μl. Several concentrations of each test compound were tested in the assay for IC50 determination. The plates were incubated for one hour at room temperature and counted in a Wallac Trilux counter. Total and non-specific binding were determined using buffer and 1 μM (final concentration) of the high affinity BACE1 reference inhibitor (S)-6-[3-chloro-5-(5-prop-1-ynyl-pyridin-3-yl)-thiophen-2-yl]-2-imino-3,6-dimethyl-tetrahydro-pyrimidin-4-one, respectively. For each test compound, a IC50 value (the concentration mediating 50% inhibition of the specific binding of the radioligand) was determined from concentration-response curve and used to calculate the Ki from the equation Ki=IC50/(1+L/Kd), where L and Kd are the final concentration of the radioligand used in the assay and the dissociation constant of the radioligand, respectively. The Kd of the radioligand was determined from saturation binding experiments.

T1 sequence (P56817 46-501): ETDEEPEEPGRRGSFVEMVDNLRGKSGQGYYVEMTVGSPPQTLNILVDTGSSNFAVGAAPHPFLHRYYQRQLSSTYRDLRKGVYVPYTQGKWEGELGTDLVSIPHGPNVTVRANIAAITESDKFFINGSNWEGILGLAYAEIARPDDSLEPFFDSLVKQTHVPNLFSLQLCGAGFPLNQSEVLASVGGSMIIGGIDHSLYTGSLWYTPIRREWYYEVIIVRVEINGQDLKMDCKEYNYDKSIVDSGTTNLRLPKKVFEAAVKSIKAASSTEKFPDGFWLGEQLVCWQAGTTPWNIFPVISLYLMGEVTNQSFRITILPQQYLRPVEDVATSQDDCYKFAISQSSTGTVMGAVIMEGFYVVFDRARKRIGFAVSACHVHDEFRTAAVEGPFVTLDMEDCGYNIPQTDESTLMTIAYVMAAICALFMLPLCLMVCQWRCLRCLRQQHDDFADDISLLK

In the case of `C[C@]1(F)C[C@H](F)[C@@](C)(c2cc(NC(=O)c3ccc(F)cn3)ccc2F)N=C1N` [Compound 1, N-(3-((2R,3S,5S)-6-Amino-3,5-difluoro-2,5-dimethyl-2,3,4,5-tetrahydropyridin-2-yl)-4-fluorophenyl)-5-fluoropicolinamide], the inhibition at 10 µM [1] is reported as 103%, the efflux ratio at 60 min, 0.5 μM [2] is reported as 1.09 and the Ki [3] is reported as 30 nM.

`COc1cnc(C(=O)Nc2ccc(F)c([C@@]3(C)N=C(N)[C@@](C)(F)C[C@@H]3F)c2)cn1` [Compound 2, N-(3-((2R,3S,5S)-6-amino-3,5-difluoro-2,5-dimethyl-2,3,4,5-tetrahydropyridin-2-yl)-4-fluorophenyl)-5-methoxypyrazine-2-carboxamide] gave an inhibition at 10 µM [1] of 99%, an efflux ratio at 60 min, 0.5 μM [2] of 0.79 and a Ki [3] of 26 nM.

With `C[C@@]1(F)C[C@H](F)[C@@](C)(c2cc(NC(=O)c3ccc(F)cn3)ccc2F)N=C1N` [Compound 4, N-(3-((2R,3S,5R)-6-amino-3,5-difluoro-2,5-dimethyl-2,3,4,5-tetrahydropyridin-2-yl)-4-fluorophenyl)-5-fluoropicolinamide] the inhibition at 10 µM [1] was 101%, the efflux ratio at 60 min, 0.5 μM [2] was 1.17 and the Ki [3] was 98 nM.

In the case of `COc1cnc(C(=O)Nc2ccc(F)c([C@@]3(C)N=C(N)[C@](C)(F)C[C@@H]3F)c2)cn1` [Compound 5, N-(3-((2R,3S,5R)-6-amino-3,5-difluoro-2,5-dimethyl-2,3,4,5-tetrahydropyridin-2-yl)-4-fluorophenyl)-5-methoxypyrazine-2-carboxamide], the efflux ratio at 60 min, 0.5 μM [2] is reported as 1.53 and the Ki [3] is reported as 51 nM.

`Cc1nc(C(=O)Nc2ccc(F)c([C@@]3(C)N=C(N)[C@](C)(F)C[C@@H]3F)c2)co1` [Compound 6, N-(3-((2R,3S,5R)-6-amino-3,5-difluoro-2,5-dimethyl-2,3,4,5-tetrahydropyridin-2-yl)-4-fluorophenyl)-2-methyloxazole-4-carboxamide] gave an inhibition at 10 µM [1] of 101%, an efflux ratio at 60 min, 0.5 μM [2] of 1.1 and a Ki [3] of 58 nM.

`COc1ccc(C(=O)Nc2ccc(F)c([C@@]3(C)N=C(N)[C@](C)(F)C[C@@H]3F)c2)nc1` [Compound 7, N-(3-((2R,3S,5R)-6-amino-3,5-difluoro-2,5-dimethyl-2,3,4,5-tetrahydropyridin-2-yl)-4-fluorophenyl)-5-methoxypicolinamide] gave an inhibition at 10 µM [1] of 102%, an efflux ratio at 60 min, 0.5 μM [2] of 5.67 and a Ki [3] of 39 nM.

`[2H]C([2H])([2H])Oc1ccc(C(=O)Nc2ccc(F)c([C@@]3(C)N=C(N)[C@](C)(F)C[C@@H]3F)c2)nc1` [Compound 8, N-(3-((2R,3S,5R)-6-amino-3,5-difluoro-2,5-dimethyl-2,3,4,5-tetrahydropyridin-2-yl)-4-fluorophenyl)-5-(methoxy-d3)picolinamide] was tested, and the inhibition at 10 µM [1] was 100%, the efflux ratio at 60 min, 0.5 μM [2] was 0.95 and the Ki [3] was 58 nM.

`C[C@@]1(F)C[C@H](F)[C@@](C)(c2cc(NC(=O)c3ccc(Cl)cn3)ccc2F)N=C1N` [Compound 9, N-(3-((2R,3S,5R)-6-amino-3,5-difluoro-2,5-dimethyl-2,3,4,5-tetrahydropyridin-2-yl)-4-fluorophenyl)-5-chloropicolinamide] showed an inhibition at 10 µM [1] of 109%, an efflux ratio at 60 min, 0.5 μM [2] of 1.31 and a Ki [3] of 36 nM.

For `Cn1ccnc1C(=O)Nc1ccc(F)c([C@@]2(C)N=C(N)[C@](C)(F)C[C@@H]2F)c1` [Compound 10, N-(3-((2R,3S,5R)-6-amino-3,5-difluoro-2,5-dimethyl-2,3,4,5-tetrahydropyridin-2-yl)-4-fluorophenyl)-1-methyl-1H-imidazole-2-carboxamide], the inhibition at 10 µM [1] was 115% and the Ki [3] was 820 nM.

`C[C@@]1(F)C[C@H](F)[C@@](C)(c2cc(NC(=O)c3cnc(C(F)(F)F)cn3)ccc2F)N=C1N` [Compound 11, N-(3-((2R,3S,5R)-6-amino-3,5-difluoro-2,5-dimethyl-2,3,4,5-tetrahydropyridin-2-yl)-4-fluorophenyl)-5-(trifluoromethyl)pyrazine-2-carboxamide] gave an inhibition at 10 µM [1] of 104% and a Ki [3] of 190 nM.

Compound `Cc1csc(C(=O)Nc2ccc(F)c([C@@]3(C)N=C(N)[C@](C)(F)C[C@@H]3F)c2)n1` [Compound 12, N-(3-((2R,3S,5R)-6-amino-3,5-difluoro-2,5-dimethyl-2,3,4,5-tetrahydropyridin-2-yl)-4-fluorophenyl)-4-methylthiazole-2-carboxamide] has an inhibition at 10 µM [1] of 118% and a Ki [3] of 99 nM.

`C[C@@]1(F)C[C@H](F)[C@@](C)(c2cc(NC(=O)c3coc(C(F)F)n3)ccc2F)N=C1N` [Compound 13, N-(3-((2R,3S,5R)-6-amino-3,5-difluoro-2,5-dimethyl-2,3,4,5-tetrahydropyridin-2-yl)-4-fluorophenyl)-2-(difluoromethyl)oxazole-4-carboxamide] showed an inhibition at 10 µM [1] of 108%, an efflux ratio at 60 min, 0.5 μM [2] of 11.7 and a Ki [3] of 62 nM.

`C[C@@]1(F)C[C@H](F)[C@@](C)(c2cc(NC(=O)c3ccn(C(F)F)n3)ccc2F)N=C1N` [Compound 14, N-(3-((2R,3S,5R)-6-amino-3,5-difluoro-2,5-dimethyl-2,3,4,5-tetrahydropyridin-2-yl)-4-fluorophenyl)-1-(difluoromethyl)-1H-pyrazole-3-carboxamide] was tested, and the inhibition at 10 µM [1] was 112%, the efflux ratio at 60 min, 0.5 μM [2] was 15.8 and the Ki [3] was 45 nM.

Work on `C[C@@]1(F)C[C@H](F)[C@@](C)(c2cc(NC(=O)c3cnc(C(F)F)cn3)ccc2F)N=C1N` [Compound 15, N-(3-((2R,3S,5R)-6-amino-3,5-difluoro-2,5-dimethyl-2,3,4,5-tetrahydropyridin-2-yl)-4-fluorophenyl)-5-(difluoromethyl)pyrazine-2-carboxamide] yielded an inhibition at 10 µM [1] of 108%, an efflux ratio at 60 min, 0.5 μM [2] of 2.07 and a Ki [3] of 100 nM.

Work on `C[C@@]1(F)C[C@H](F)[C@@](C)(c2cc(NC(=O)c3ccc(Cl)cc3)ccc2F)N=C1N` [Compound 16, N-(3-((2R,3S,5R)-6-amino-3,5-difluoro-2,5-dimethyl-2,3,4,5-tetrahydropyridin-2-yl)-4-fluorophenyl)-4-chlorobenzamide] yielded an inhibition at 10 µM [1] of 103%, an efflux ratio at 60 min, 0.5 μM [2] of 1.6 and a Ki [3] of 220 nM.

For `C[C@@]1(F)C[C@H](F)[C@@](C)(c2cc(NC(=O)c3ccc(C#N)cn3)ccc2F)N=C1N` [Compound 17, N-(3-((2R,3S,5R)-6-amino-3,5-difluoro-2,5-dimethyl-2,3,4,5-tetrahydropyridin-2-yl)-4-fluorophenyl)-5-cyanopicolinamide], the efflux ratio at 60 min, 0.5 μM [2] was 0.45 and the Ki [3] was 39 nM.

`[2H]C([2H])([2H])Oc1ccc(C(=O)Nc2cc(F)c(F)c([C@@]3(C)N=C(N)[C@](C)(F)C[C@@H]3F)c2)nc1` [Compound 18, N-(3-((2R,3S,5R)-6-amino-3,5-difluoro-2,5-dimethyl-2,3,4,5-tetrahydropyridin-2-yl)-4,5-difluorophenyl)-5-(methoxy-d3)picolinamide] showed an inhibition at 10 µM [1] of 101%, an efflux ratio at 60 min, 0.5 μM [2] of 1.24 and a Ki [3] of 6.8 nM.

For `C[C@]1(F)C[C@H](F)[C@@](C)(c2cc(NC(=O)c3ccc(Br)cn3)ccc2F)N=C1N` [Compound 24, N-(3-((2R,3S,5S)-6-amino-3,5-difluoro-2,5-dimethyl-2,3,4,5-tetrahydropyridin-2-yl)-4-fluorophenyl)-5-bromopicolinamide], the inhibition at 10 µM [1] was 103% and the Ki [3] was 4.3 nM.
